Laboratory results reported in ChEMBL document CHEMBL3885881, “DrugMatrix”.

Species: Rattus norvegicus
Experiment: DrugMatrix - Regimen: Daily Repeat
Assay type: toxicity, organism-based, Sprague-Dawley
Set-up: regimen Daily Repeat, gender Male, age 6-8 weeks
Details: in vivo, po, route oral GAVAGE, vehicle .5 % CMC; for ABSOLUTE BASOPHIL / ABSOLUTE EOSINOPHIL / ABSOLUTE LYMPHOCYTE / ABSOLUTE MONOCYTE / ABSOLUTE SEGMENTED NEUTROPHIL / BASOPHIL / EOSINOPHIL / ERYTHROCYTE COUNT / HEMATOCRIT / HEMOGLOBIN / LEUKOCYTE COUNT / LYMPHOCYTE / MEAN CORPUSCULAR HEMOGLOBIN / MEAN CORPUSCULAR HEMOGLOBIN CONCENTRATION / MEAN CORPUSCULAR VOLUME / MONOCYTE / NEUTROPHIL / NUCLEATED RED BLOOD CELLS / PLATELET COUNT: tissue Blood; for ALANINE AMINOTRANSFERASE / ALBUMIN / ALKALINE PHOSPHATASE / ASPARTATE AMINOTRANSFERASE / BLOOD UREA NITROGEN / CARBON DIOXIDE / CHLORIDE / CHOLESTEROL / CREATINE PHOSPHOKINASE / CREATININE / GLUCOSE / LACTATE DEHYDROGENASE / LIPASE / PHOSPHORUS / POTASSIUM / SODIUM / TOTAL BILIRUBIN / TOTAL PROTEIN / URIC ACID: tissue Plasma
[1] = 0 mg/kg, 72 h, dose level Control, time 3 day
[2] = 0 mg/kg, 120 h, dose level Control, time 5 day
[3] = 30 mg/kg, 72 h, dose level Low, time 3 day
[4] = 30 mg/kg, 120 h, dose level Low, time 5 day

COc1cc(OC)c(C(=O)CCCN2CCCC2)c(OC)c1 [BUFLOMEDIL]
ABSOLUTE BASOPHIL [1]: 0 CELLS/uL | ABSOLUTE EOSINOPHIL [1]: 0 CELLS/uL | ABSOLUTE LYMPHOCYTE [1]: 10913.67 CELLS/uL | ABSOLUTE MONOCYTE [1]: 85.33 CELLS/uL | ABSOLUTE SEGMENTED NEUTROPHIL [1]: 1401 CELLS/uL | BASOPHIL [1]: 0% | EOSINOPHIL [1]: 0% | ERYTHROCYTE COUNT [1]: 5.57 x10E6/uL | HEMATOCRIT [1]: 35.58% | HEMOGLOBIN [1]: 13.8 G/DL | LEUKOCYTE COUNT [1]: 12.4 x10E3/uL | LYMPHOCYTE [1]: 88% | MEAN CORPUSCULAR HEMOGLOBIN [1]: 24.78 pg | MEAN CORPUSCULAR HEMOGLOBIN CONCENTRATION [1]: 38.82 G/DL | MEAN CORPUSCULAR VOLUME [1]: 63.88 fL | MONOCYTE [1]: 0.67% | NEUTROPHIL [1]: 11.33% | NUCLEATED RED BLOOD CELLS [1]: 0 /100WBC | PLATELET COUNT [1]: 1162.33 x10E3/uL | ALANINE AMINOTRANSFERASE [1]: 53 u/L | ALBUMIN [1]: 4.17 G/DL | ALKALINE PHOSPHATASE [1]: 374.5 u/L | ASPARTATE AMINOTRANSFERASE [1]: 89.5 u/L | BLOOD UREA NITROGEN [1]: 16.33 mg/dL | CARBON DIOXIDE [1]: 29.17 mmol/L | CHLORIDE [1]: 97.67 MEQ/L | CHOLESTEROL [1]: 77 mg/dL | CREATINE PHOSPHOKINASE [1]: 464.83 u/L | CREATININE [1]: 0.14 mg/dL | GLUCOSE [1]: 164 mg/dL | LACTATE DEHYDROGENASE [1]: 155.5 u/L | LIPASE [1]: 9.17 u/L | PHOSPHORUS [1]: 12.4 mg/dL | POTASSIUM [1]: 6.91 MEQ/L | SODIUM [1]: 141.47 MEQ/L | TOTAL BILIRUBIN [1]: 0.2 mg/dL | TOTAL PROTEIN [1]: 5.95 G/DL | URIC ACID [1]: 1.72 mg/dL | ABSOLUTE BASOPHIL [2]: 0 CELLS/uL | ABSOLUTE EOSINOPHIL [2]: 20.5 CELLS/uL | ABSOLUTE LYMPHOCYTE [2]: 13871.67 CELLS/uL | ABSOLUTE MONOCYTE [2]: 60.5 CELLS/uL | ABSOLUTE SEGMENTED NEUTROPHIL [2]: 980.67 CELLS/uL | BASOPHIL [2]: 0% | EOSINOPHIL [2]: 0.17% | ERYTHROCYTE COUNT [2]: 5.65 x10E6/uL | HEMATOCRIT [2]: 35.63% | HEMOGLOBIN [2]: 14.08 G/DL | LEUKOCYTE COUNT [2]: 14.93 x10E3/uL | LYMPHOCYTE [2]: 92.83% | MEAN CORPUSCULAR HEMOGLOBIN [2]: 24.97 pg | MEAN CORPUSCULAR HEMOGLOBIN CONCENTRATION [2]: 39.55 G/DL | MEAN CORPUSCULAR VOLUME [2]: 63.13 fL | MONOCYTE [2]: 0.33% | NEUTROPHIL [2]: 6.67% | NUCLEATED RED BLOOD CELLS [2]: 0 /100WBC | PLATELET COUNT [2]: 1248.17 x10E3/uL | ALANINE AMINOTRANSFERASE [2]: 45.17 u/L | ALBUMIN [2]: 4.27 G/DL | ALKALINE PHOSPHATASE [2]: 405.67 u/L | ASPARTATE AMINOTRANSFERASE [2]: 74.17 u/L | BLOOD UREA NITROGEN [2]: 15.5 mg/dL | CARBON DIOXIDE [2]: 30.17 mmol/L | CHLORIDE [2]: 100.67 MEQ/L | CHOLESTEROL [2]: 57 mg/dL | CREATINE PHOSPHOKINASE [2]: 239.5 u/L | CREATININE [2]: 0.17 mg/dL | GLUCOSE [2]: 165.67 mg/dL | LACTATE DEHYDROGENASE [2]: 90.5 u/L | LIPASE [2]: 8.83 u/L | PHOSPHORUS [2]: 12.32 mg/dL | POTASSIUM [2]: 7.03 MEQ/L | SODIUM [2]: 142.65 MEQ/L | TOTAL BILIRUBIN [2]: 0.18 mg/dL | TOTAL PROTEIN [2]: 6.03 G/DL | URIC ACID [2]: 1.98 mg/dL | ABSOLUTE BASOPHIL [3]: 0 CELLS/uL | ABSOLUTE EOSINOPHIL [3]: 0 CELLS/uL | ABSOLUTE LYMPHOCYTE [3]: 12859.33 CELLS/uL | ABSOLUTE MONOCYTE [3]: 198 CELLS/uL | ABSOLUTE SEGMENTED NEUTROPHIL [3]: 1176 CELLS/uL | BASOPHIL [3]: 0% | EOSINOPHIL [3]: 0% | ERYTHROCYTE COUNT [3]: 5.25 x10E6/uL | HEMATOCRIT [3]: 33.97% | HEMOGLOBIN [3]: 14.13 G/DL | LEUKOCYTE COUNT [3]: 14.23 x10E3/uL | LYMPHOCYTE [3]: 90% | MEAN CORPUSCULAR HEMOGLOBIN [3]: 25.77 pg | MEAN CORPUSCULAR HEMOGLOBIN CONCENTRATION [3]: 39.67 G/DL | MEAN CORPUSCULAR VOLUME [3]: 64.9 fL | MONOCYTE [3]: 1.33% | NEUTROPHIL [3]: 8.67% | NUCLEATED RED BLOOD CELLS [3]: 0 /100WBC | PLATELET COUNT [3]: 1306 x10E3/uL | ALANINE AMINOTRANSFERASE [3]: 53 u/L | ALBUMIN [3]: 4.17 G/DL | ALKALINE PHOSPHATASE [3]: 441 u/L | ASPARTATE AMINOTRANSFERASE [3]: 83.33 u/L | BLOOD UREA NITROGEN [3]: 16.67 mg/dL | CARBON DIOXIDE [3]: 27.67 mmol/L | CHLORIDE [3]: 98 MEQ/L | CHOLESTEROL [3]: 75.33 mg/dL | CREATINE PHOSPHOKINASE [3]: 360 u/L | CREATININE [3]: 0.1 mg/dL | GLUCOSE [3]: 146 mg/dL | LACTATE DEHYDROGENASE [3]: 180.33 u/L | LIPASE [3]: 9.33 u/L | PHOSPHORUS [3]: 13.93 mg/dL | POTASSIUM [3]: 6.77 MEQ/L | SODIUM [3]: 143.3 MEQ/L | TOTAL BILIRUBIN [3]: 0.23 mg/dL | TOTAL PROTEIN [3]: 5.9 G/DL | URIC ACID [3]: 1.47 mg/dL | ABSOLUTE BASOPHIL [4]: 0 CELLS/uL | ABSOLUTE EOSINOPHIL [4]: 0 CELLS/uL | ABSOLUTE LYMPHOCYTE [4]: 10085.67 CELLS/uL | ABSOLUTE MONOCYTE [4]: 133.67 CELLS/uL | ABSOLUTE SEGMENTED NEUTROPHIL [4]: 980.67 CELLS/uL | BASOPHIL [4]: 0% | EOSINOPHIL [4]: 0% | ERYTHROCYTE COUNT [4]: 5.03 x10E6/uL | HEMATOCRIT [4]: 33.2% | HEMOGLOBIN [4]: 13.3 G/DL | LEUKOCYTE COUNT [4]: 11.2 x10E3/uL | LYMPHOCYTE [4]: 91.33% | MEAN CORPUSCULAR HEMOGLOBIN [4]: 26.47 pg | MEAN CORPUSCULAR HEMOGLOBIN CONCENTRATION [4]: 40.07 G/DL | MEAN CORPUSCULAR VOLUME [4]: 66.07 fL | MONOCYTE [4]: 1% | NEUTROPHIL [4]: 7.67% | NUCLEATED RED BLOOD CELLS [4]: 0 /100WBC | PLATELET COUNT [4]: 833 x10E3/uL | ALANINE AMINOTRANSFERASE [4]: 55.67 u/L | ALBUMIN [4]: 4.23 G/DL | ALKALINE PHOSPHATASE [4]: 308.33 u/L | ASPARTATE AMINOTRANSFERASE [4]: 81 u/L | BLOOD UREA NITROGEN [4]: 17.33 mg/dL | CARBON DIOXIDE [4]: 26.33 mmol/L | CHLORIDE [4]: 102.33 MEQ/L | CHOLESTEROL [4]: 64 mg/dL | CREATINE PHOSPHOKINASE [4]: 354.67 u/L | CREATININE [4]: 0.13 mg/dL | GLUCOSE [4]: 152.33 mg/dL | LACTATE DEHYDROGENASE [4]: 110.67 u/L | LIPASE [4]: 12 u/L | PHOSPHORUS [4]: 12.5 mg/dL | POTASSIUM [4]: 6.61 MEQ/L | SODIUM [4]: 143.1 MEQ/L | TOTAL BILIRUBIN [4]: 0.2 mg/dL | TOTAL PROTEIN [4]: 5.97 G/DL | URIC ACID [4]: 2.27 mg/dL
